Several values for one entry are separate records, joined by “and”; a condition that tells them apart may be missing. Equal entries are not always repeated.
Columns and labels:
[1] = In vitro dissolution / CIP release at pH 5.0 for 72 h; format: physicochemical
[2] = tested on: Salmonella typhi strains; test: Antibacterial activity, CFU count / sterilization rate; format: cell-based; details: Salmonella typhi 3 × 10^4 cells/ml, 3 h at 37 °C, CFU after 18 h
Procedure: After incubation, solidified LB agar plat was impregnated with 100 μL of the bacterial suspension.

[3] = In vivo pharmacokinetics after oral delivery (HPLC of plasma); details: mice
Procedure: Healthy mice weighing 30 g were kept in the primate facility with free access to food and water a day before the commencement of the experiment. The mice were divided into two groups (n = 5). […] Blood plasma was stored at −20 °C until further use.

[4] = release kinetic model Ct = C0 + k0t
[5] = release kinetic model Mi/M∞ = Kth + b
[6] = release kinetic model logQ0 + Kit/2.3

Structure (SMILES): O=C(O)c1cn(C2CC2)c2cc(N3CCNCC3)c(F)cc2c1=O [CIP, Ciprofloxacin]
- Zero Order K^0 [1, 4]: 32.90
- Zero Order R^2 [1, 4]: 0.5787 ± 2.57
- Korsmeyer-Peppas N (release exponent n) [1, 5]: 0.502
- Korsmeyer-Peppas R2 [1, 5]: 0.9370 ± 4.85
- Higuchi KH ([1]; release kinetic model Q = KH√t): 53.70
- Higuchi R2 ([1]; release kinetic model Q = KH√t): 0.9360 ± 3.57
- First Order K1 [1, 6]: 0.877
- First Order R^2 [1, 6]: 0.9534 ± 1.57
- Sterilizing rate [2]: 9 ± 3.25%
- AUMC 0-inf [3]: 900.65 μg/mL × h^2 and 900.65 ± 1.57 μg/mL × h^2

— publication PMC8146397 (Nanomaterials, 2021)
